Data taken from ChEMBL document CHEMBL1201862, “PubChem BioAssay data set” (2004).
Activity calls are given as the source filed them.

Tests used:
[1] = biological target: T1, Neuropeptide Y receptor type 2 (Homo sapiens, UniProt P49146); assay: Fluorescence-based cell-based high-throughput dose response assay for agonists of NPY-Y2. [Related pubchem assays: 1703 (Screening assay (CNGC inhibitors).), 1359 (Screening assay (NPY-Y2 potentiators or agonists).), 1304 (Screening assay (NPY-Y1 potentiators or agonists).), 1710 (Screening assay (NPY-Y2 agonists).), 1791 (Summary AID.)]; type: functional
T1 sequence (P49146 whole entry): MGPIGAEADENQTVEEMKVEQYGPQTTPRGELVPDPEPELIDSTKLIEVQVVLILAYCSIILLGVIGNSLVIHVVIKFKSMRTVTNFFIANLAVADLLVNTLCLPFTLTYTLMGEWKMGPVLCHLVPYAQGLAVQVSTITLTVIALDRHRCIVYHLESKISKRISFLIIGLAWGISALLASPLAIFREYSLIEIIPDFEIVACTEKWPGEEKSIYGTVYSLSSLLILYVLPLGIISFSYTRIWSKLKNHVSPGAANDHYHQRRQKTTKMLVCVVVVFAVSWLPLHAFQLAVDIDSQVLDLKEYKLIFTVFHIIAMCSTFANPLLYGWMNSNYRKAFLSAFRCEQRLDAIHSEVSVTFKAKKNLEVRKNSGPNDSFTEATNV

[2] = test system: Streptococcus sp. 'group A'; assay: Streptococcus pyogenes SK(-)GAS viability under kanamycin – luminescence, BacTiterGlo, confirmation, counter-screen for streptokinase expression inhibitor project, dose response (AID 1900); type: functional, organism-based
[3] = HepG2 cell cytotoxicity, dose response, cytotoxicity control for non-replicating M. tuberculosis project (AID 489018); type: functional; details: Mycobacterium tuberculosis
[4] = biological target: T2, Sentrin-specific protease 7 (Homo sapiens, UniProt Q9BQF6); type: functional;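 note: Luminescence-based dose-response confirmation of ultra-high-throughput screening hits, measuring inhibition of SENP7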
T2 sequence (Q9BQF6 whole entry): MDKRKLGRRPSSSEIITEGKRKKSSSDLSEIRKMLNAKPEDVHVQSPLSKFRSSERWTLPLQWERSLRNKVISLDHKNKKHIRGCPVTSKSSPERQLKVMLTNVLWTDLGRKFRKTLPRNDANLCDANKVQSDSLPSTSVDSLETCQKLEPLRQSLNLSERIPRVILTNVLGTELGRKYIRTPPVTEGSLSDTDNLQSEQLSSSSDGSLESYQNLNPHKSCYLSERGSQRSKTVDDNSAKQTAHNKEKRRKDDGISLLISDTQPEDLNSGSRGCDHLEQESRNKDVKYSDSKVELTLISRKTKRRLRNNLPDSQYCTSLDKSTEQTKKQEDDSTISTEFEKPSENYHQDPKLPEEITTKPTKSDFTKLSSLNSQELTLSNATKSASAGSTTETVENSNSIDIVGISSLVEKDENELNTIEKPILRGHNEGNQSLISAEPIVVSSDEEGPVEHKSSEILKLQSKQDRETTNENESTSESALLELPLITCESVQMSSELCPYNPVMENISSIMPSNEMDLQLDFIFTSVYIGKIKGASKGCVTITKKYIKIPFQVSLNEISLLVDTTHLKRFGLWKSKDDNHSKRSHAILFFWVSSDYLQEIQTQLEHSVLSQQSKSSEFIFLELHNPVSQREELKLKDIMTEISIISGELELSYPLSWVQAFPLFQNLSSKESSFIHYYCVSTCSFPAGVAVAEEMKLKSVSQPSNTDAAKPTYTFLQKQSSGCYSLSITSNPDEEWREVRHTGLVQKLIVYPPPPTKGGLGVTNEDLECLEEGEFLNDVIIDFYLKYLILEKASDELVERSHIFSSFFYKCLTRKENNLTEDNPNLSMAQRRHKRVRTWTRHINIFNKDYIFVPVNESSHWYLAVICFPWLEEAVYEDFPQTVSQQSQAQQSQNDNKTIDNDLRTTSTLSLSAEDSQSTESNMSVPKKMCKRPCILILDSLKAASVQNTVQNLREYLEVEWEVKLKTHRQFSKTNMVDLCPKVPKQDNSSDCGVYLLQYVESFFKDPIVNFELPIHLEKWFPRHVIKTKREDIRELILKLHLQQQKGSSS

[5] = biological target: NS3 (Hepatitis C virus, UniProt A3EZJ3); assay: PubChem AID 2173; parameters: species or system Hepacivirus hominis
Chain of NS3 (A3EZJ3 whole entry): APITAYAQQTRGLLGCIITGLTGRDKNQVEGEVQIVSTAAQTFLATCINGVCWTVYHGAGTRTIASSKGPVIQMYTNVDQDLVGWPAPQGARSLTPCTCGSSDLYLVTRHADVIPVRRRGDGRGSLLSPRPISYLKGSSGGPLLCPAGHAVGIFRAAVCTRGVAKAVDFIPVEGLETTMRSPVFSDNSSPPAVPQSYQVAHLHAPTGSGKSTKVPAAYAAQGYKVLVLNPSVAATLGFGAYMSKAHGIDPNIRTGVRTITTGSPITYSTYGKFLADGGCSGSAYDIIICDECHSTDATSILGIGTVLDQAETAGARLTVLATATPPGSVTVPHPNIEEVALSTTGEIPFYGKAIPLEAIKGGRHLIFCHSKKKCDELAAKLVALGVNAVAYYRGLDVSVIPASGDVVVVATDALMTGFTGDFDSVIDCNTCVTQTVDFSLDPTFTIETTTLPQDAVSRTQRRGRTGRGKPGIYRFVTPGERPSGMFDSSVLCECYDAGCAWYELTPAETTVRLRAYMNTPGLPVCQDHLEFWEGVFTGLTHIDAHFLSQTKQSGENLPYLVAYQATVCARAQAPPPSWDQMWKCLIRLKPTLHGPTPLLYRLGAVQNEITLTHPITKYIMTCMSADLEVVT

[6] = biological target: T3, Sphingosine 1-phosphate receptor 4 (Homo sapiens, UniProt O95977); assay: Late stage fluorescence dose response cell-based screening assay for antagonists of the Sphingosine 1-Phosphate Receptor 4 (S1P4). [Related pubchem assays: 1524 (Confirmation screen (S1P4 antagonists).), 1510 (Primary screen (S1P4 antagonists).), 1853 (Summary AID (S1P4 antagonists).), 1692 (Dose response screen (S1P4 antagonists).)]; type: functional
T3 sequence (O95977 whole entry): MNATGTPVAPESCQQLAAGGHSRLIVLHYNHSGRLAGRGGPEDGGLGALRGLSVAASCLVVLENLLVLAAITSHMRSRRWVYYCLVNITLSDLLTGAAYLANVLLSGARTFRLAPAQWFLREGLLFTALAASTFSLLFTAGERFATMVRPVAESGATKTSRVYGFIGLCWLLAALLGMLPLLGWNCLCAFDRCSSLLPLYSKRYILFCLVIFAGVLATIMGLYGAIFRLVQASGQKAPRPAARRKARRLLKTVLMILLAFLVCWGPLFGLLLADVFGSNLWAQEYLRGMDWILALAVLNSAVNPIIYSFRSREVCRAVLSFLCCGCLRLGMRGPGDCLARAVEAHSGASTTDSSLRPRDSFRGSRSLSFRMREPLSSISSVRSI

[7] = biological target: Sphingosine 1-phosphate receptor 1 (Homo sapiens, UniProt P21453); type: functional;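 note: Tango beta-arrestin reporter U2OS cells stimulated with S1P near its EC80; inhibitor potency meaning antagonism of receptor activation by the natural agonist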
Chain of Sphingosine 1-phosphate receptor 1 (P21453 whole entry): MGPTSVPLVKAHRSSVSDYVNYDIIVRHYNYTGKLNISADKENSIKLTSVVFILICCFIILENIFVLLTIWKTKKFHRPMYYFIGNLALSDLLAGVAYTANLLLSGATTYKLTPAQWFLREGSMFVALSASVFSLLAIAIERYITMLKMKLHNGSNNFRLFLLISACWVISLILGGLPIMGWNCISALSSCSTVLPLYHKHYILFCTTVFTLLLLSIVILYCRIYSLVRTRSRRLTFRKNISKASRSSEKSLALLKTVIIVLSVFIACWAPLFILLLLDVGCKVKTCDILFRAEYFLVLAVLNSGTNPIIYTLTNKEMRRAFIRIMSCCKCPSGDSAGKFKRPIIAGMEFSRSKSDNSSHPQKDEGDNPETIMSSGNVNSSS

In the case of `O=C(CC(O)(C(F)(F)F)C(F)(F)F)Nc1ccc(Cl)c(Cl)c1`, the EC50 [1] was 21.7 µM (not active).

With `O=C(CNc1cccc2ccccc12)N/N=C/c1ccc([N+](=O)[O-])o1` the EC50 [2] was 0.901 µM (active) and the CC50 [3] was 17.5 µM (active).

In the case of `O=C1NC(=S)N/C1=C/c1cc2c(cc1[N+](=O)[O-])OCO2`, the IC50 [4] was 25.4 µM (active).

With `Cc1ccc(NC(=O)C2=C(c3ccccc3)S(=O)(=O)CCS2(=O)=O)cc1` the IC50 [5] was 9.23 µM (active), the IC50 [6] was 3.72 µM (not active) and the IC50 [7] was 68.8 µM (not active).
